Reference: US20110305715A1, “ANTIBODIES TO 3-HYDROXYCOTININE AND METHODS OF USE THEREOF” (priority 2010, published 2011)
Values after ≈ are worked out from the molar mass of the structure shown. Blank lines part the entries; values can stand above or below the compound they belong to.

Assays:
[1] = system: Cotinine MAb 3B11A4; assay: Competitive microplate ELISA (test principle #1) with immobilized COT MAb and COT-HRP tracer; assay type: binding; details: for Reactivity (%): calculated from IC50 values, Cotinine MAb 3B11A4; for IC50: competitor vs COT-HRP for Cotinine MAb 3B11A4
Protocol: (§1) Competitive microplate EIA for quantification of COT (A) and 3HC (B) by test principle #1. Different concentrations of COT or 3HC and fifteen other NIC metabolites were incubated with an immobilized COT MAb or 3HC MAb in the presence of a constant amount of COT-HRP or 3HC-HRP. The binding of the COT-HRP or 3HC-HRP to its corresponding MAb was detected by the reaction of the HRP with peroxidase substrate. The graph illustrates an inhibition curve that was formed with various concentrations of authentic COT (A) and 3HC (B). Apparent COT or 3HC concentrations are inversely related to the OD450 value.
Specificity and sensitivity of the anti-cotinine monoclonal antibody (COT MAb) were determined in competitive microplate ELISA with COT and a battery of NIC metabolites and tobacco alkaloids using COT-HRP as tracer. […] Apparent COT concentrations are inversely related to the OD450 value.

[2] = system: 3-Hydroxycotinine MAb 22H9C7; assay: Competitive microplate ELISA (test principle #1) with immobilized 3HC MAb and 3HC-HRP tracer; details: for Reactivity (%): calculated from IC50 values, 3-Hydroxycotinine MAb 22H9C7; for IC50: competitor vs 3HC-HRP for 3-Hydroxycotinine MAb 22H9C7
Protocol: as §1
As for the anti-cotinine monoclonal antibody, above, specificity and sensitivity of the anti-3-hydroxycotinine monoclonal antibody (3HC MAb) was determined in competitive microplate ELISA with 3HC and a battery of NIC metabolites and tobacco alkaloids using 3HC-HRP as tracer. […] Apparent 3HC concentrations are inversely related to the OD450 value.

Compound: CN1C(=O)C(O[C@@H]2O[C@H](C(=O)O)[C@@H](O)[C@H](O)[C@H]2O)CC1c1cccnc1 (stereo partly drawn) [3-Hydroxycotinine-gluconuride, 3-hydroxycotinine-glucuronide]
Reactivity (%) [1]: <1.5% | IC50 [1]: >5,000 ng/mL | Reactivity (%) [2]: <1% | IC50 [2]: >5,000 ng/mL

Compound: CN1C(=O)C(O)C[C@H]1c1cccnc1 (stereo partly drawn) [3-Hydroxycotinine]
Reactivity (%) [1]: 1.86% | IC50 [1]: 3545.0 ng/mL (≈ 18.4 µM) | Reactivity (%) [2]: 100% | IC50 [2]: 39.8 ng/mL (≈ 0.207 µM)

Compound: CN1C(=O)CC[C@@]1(O)c1cccnc1 [5-Hydroxycotinine]
Reactivity (%) [1]: 4.39% | IC50 [1]: 1505.2 ng/mL (≈ 7.83 µM) | Reactivity (%) [2]: <1% | IC50 [2]: >5,000 ng/mL

Compound: c1cncc(C2=NCCCC2)c1 [Anabaseine]
Reactivity (%) [1]: <1.5% | IC50 [1]: >5,000 ng/mL | IC50 [2]: >5,000 ng/mL

Compound: C1=CCC(c2cccnc2)NC1 (stereo not drawn) [Anatabine]
Reactivity (%) [1]: <1.5% | IC50 [1]: >5,000 ng/mL | IC50 [2]: >5,000 ng/mL

Compound: CN1C(=O)CC[C@H]1c1ccc[n+]([O-])c1 [Cotinine-N-Oxide, cotinine-N-oxide]
Reactivity (%) [1]: <1.5% | IC50 [1]: >5,000 ng/mL | Reactivity (%) [2]: <1% | IC50 [2]: >5,000 ng/mL

IC50 [1]: >5,000 ng/mL | IC50 [2]: >5,000 ng/mL
Compound: CN1C(=O)CCC1c1ccc[n+](C2OC(C(=O)[O-])C(O)C(O)C2O)c1 (stereo not drawn) [Cotinine-gluconuride, cotinine-glucuronide]
Reactivity (%) [1]: <1.5% | Reactivity (%) [2]: <1%

IC50 [1]: 66.1 ng/mL (≈ 0.375 µM) | IC50 [2]: >5,000 ng/mL
Compound: CN1C(=O)CC[C@H]1c1cccnc1 [Cotinine]
Reactivity (%) [1]: 100% | Reactivity (%) [2]: <1%

Compound: c1cncc(C2=NCCC2)c1 [Myosmine]
Reactivity (%) [1]: <1.5% | IC50 [1]: >5,000 ng/mL | IC50 [2]: >5,000 ng/mL

Compound: c1cncc(-c2ccnc(-c3cccnc3)c2)c1 [Nicotelline]
Reactivity (%) [1]: <1.5% | IC50 [1]: >5,000 ng/mL | IC50 [2]: >5,000 ng/mL

Compound: CN1CCCC1c1ccc[n+]([O-])c1 (stereo not drawn) [Nicotine-N-Oxide, Nicotine-N-oxide]
Reactivity (%) [1]: <1.5% | IC50 [1]: >5,000 ng/mL | Reactivity (%) [2]: <1% | IC50 [2]: >5,000 ng/mL

Compound: CN1CCC[C@H]1c1ccc[n+]([C@@H]2O[C@H](C(=O)[O-])[C@@H](O)[C@H](O)[C@H]2O)c1 [Nicotine-gluconuride, Nicotine-glucuronide]
Reactivity (%) [1]: <1.5% | IC50 [1]: >5,000 ng/mL | Reactivity (%) [2]: <1% | IC50 [2]: >5,000 ng/mL

Compound: CN1CCCC1c1cccnc1 (stereo not drawn) [Nicotine]
Reactivity (%) [1]: <1.5% | IC50 [1]: >5,000 ng/mL | Reactivity (%) [2]: <1% | IC50 [2]: >5,000 ng/mL

Compound: Cn1cccc1-c1cccnc1 [Nicotyrine]
Reactivity (%) [1]: <1.5% | IC50 [1]: >5,000 ng/mL | IC50 [2]: >5,000 ng/mL

Compound: O=C1CCC(c2cccnc2)N1 (stereo not drawn) [Norcotinine]
Reactivity (%) [1]: <1.5% | IC50 [1]: >5,000 ng/mL | IC50 [2]: >5,000 ng/mL

Compound: c1cncc([C@@H]2CCCN2)c1 [Nornicotine]
Reactivity (%) [1]: <1.5% | IC50 [1]: >5,000 ng/mL | IC50 [2]: >5,000 ng/mL
